Measurements: publication PMC7369637, “Inhibition of Resistance-Refractory P. falciparum Kinase PKG Delivers Prophylactic, Blood Stage, and Transmission-Blocking Antiplasmodial Activity” (Cell Chemical Biology, 2020)

Test system: metabolite levels in Pf trophozoites and schizonts
Experiment: Metabolomics (UHPLC-MS) of treated trophozoites and schizonts
Assay type: cell-based, Plasmodium falciparum
Experimental: Metabolomics experiments were performed as described elsewhere ([Murithi et al., 2019]). […] Following several washes, metabolites were extracted by 90% methanol containing 0.5 μM ^13C^15N-labelled aspartate as an internal standard. Nitrogen-dried samples were stored at -80°C. Samples were resuspended in high-performance liquid chromatography (HPLC) grade water that contained 1 μM chlorpropamide as an internal standard. They were then analyzed by ultra-high-performance liquid chromatography mass spectrometry UHPLC-MS ([Allman et al., 2016]). Data analysis was performed using the el-MAVEN software and the Metaboanalyst package in R Studio ([Murithi et al., 2019]).

Structure (SMILES): O=C1C(O)=C([C@H]2CC[C@H](c3ccc(Cl)cc3)CC2)C(=O)c2ccccc21 [ATQ, Atovaquone]
- Log2 fold change in 2-Hydroxy-2-methylbutanedioic acid level (schizonts): -0.013
- Log2 fold change in 2_3-Diphosphoglyceric acid level (schizonts): -0.049
- Log2 fold change in 3-phosphoglycerate level (schizonts): -0.461
- Log2 fold change in 4-aminobutyrate level (schizonts): 0.163
- Log2 fold change in 4-phosphopantothenate level (schizonts): -0.471
- Log2 fold change in 6-phospho-D-gluconate level (schizonts): -0.038
- Log2 fold change in ADP-D-glucose level (schizonts): 0.078
- Log2 fold change in CDP level (schizonts): -0.939
- Log2 fold change in CMP level (schizonts): -0.776
- Log2 fold change in D-glucosamine-1/6-phosphate level (schizonts): -0.254
- Log2 fold change in D-sedoheptulose-1/7-phosphate level (schizonts): -0.253
- Log2 fold change in DL-Pipecolic Acid level (schizonts): 0.155
- Log2 fold change in DLH level (schizonts): 0.054
- Log2 fold change in DLS level (schizonts): 0.295
- Log2 fold change in FAD level (schizonts): 0.00635
- Log2 fold change in FMN level (schizonts): -0.114
- Log2 fold change in GDP level (schizonts): -0.131
- Log2 fold change in GMP level (schizonts): 0.068
- Log2 fold change in HVDD level (schizonts): 0.015
- Log2 fold change in Hexose level (schizonts): 0.028
- Log2 fold change in IMP level (schizonts): 0.230
- Log2 fold change in N-Acetyl-L-alanine level (schizonts): -0.209
- Log2 fold change in N-acetyl-L-ornithine level (schizonts): 0.067
- Log2 fold change in N-acetyl-glutamate level (schizonts): 0.069
- Log2 fold change in N-acetyl-glutamine level (schizonts): -0.075
- Log2 fold change in N-carbamoyl-L-aspartate level (schizonts): 2.103
- Log2 fold change in NAD+ level (schizonts): -0.089
- Log2 fold change in NADP+ level (schizonts): -0.036
- Log2 fold change in NADPH level (schizonts): 0.265
- Log2 fold change in Octulose 8/1P level (schizonts): -0.088
- Log2 fold change in Octulose Bisphosphate level (schizonts): -0.059
- Log2 fold change in PD level (schizonts): 0.272
- Log2 fold change in PE level (schizonts): 0.257
- Log2 fold change in PEE level (schizonts): 0.222
- Log2 fold change in PEEK level (schizonts): 0.220
- Log2 fold change in PVNF level (schizonts): -0.058
- Log2 fold change in Pyroglutamic acid level (schizonts): -0.420
- Log2 fold change in Ribose-5-phosphate level (schizonts): -0.347
- Log2 fold change in S-adenosyl-L-homocysteine level (schizonts): -0.090
- Log2 fold change in Sedoheptulose bisphosphate level (schizonts): -0.159
- Log2 fold change in UDP level (schizonts): -1.390
- Log2 fold change in UDP-D-glucose level (schizonts): -0.006
- Log2 fold change in UDP-D-glucuronate level (schizonts): -0.062
- Log2 fold change in UDP-N-acetyl-glucosamine level (schizonts): -0.391
- Log2 fold change in UMP level (schizonts): -1.267
- Log2 fold change in a-ketoglutarate level (schizonts): -0.084
- Log2 fold change in acetyl-CoA level (schizonts): -0.850
- Log2 fold change in acetyl-aspartate level (schizonts): -0.355
- Log2 fold change in alanine/sarcosine level (schizonts): -0.266
- Log2 fold change in arginine level (schizonts): -0.203
- Log2 fold change in asparagine level (schizonts): -0.008
- Log2 fold change in aspartate level (schizonts): -0.839
- Log2 fold change in coenzyme A level (schizonts): -0.075
- Log2 fold change in cyclic-AMP level (schizonts): -0.213
- Log2 fold change in cytidine level (schizonts): -0.213
- Log2 fold change in dCDP level (schizonts): -0.147
- Log2 fold change in dCMP level (schizonts): -0.462
- Log2 fold change in dCTP level (schizonts): -0.058
- Log2 fold change in dGDP/ADP level (schizonts): -0.147
- Log2 fold change in dGMP/AMP level (schizonts): -0.148
- Log2 fold change in dTDP level (schizonts): -1.164
- Log2 fold change in dTMP level (schizonts): -1.035
- Log2 fold change in dTTP level (schizonts): -0.979
- Log2 fold change in dihydroorotate level (schizonts): 3.181
- Log2 fold change in folate level (schizonts): -0.209
- Log2 fold change in fructose-1-6-bisphosphate level (schizonts): -0.277
- Log2 fold change in fructose-6-phosphate level (schizonts): -0.212
- Log2 fold change in fumarate level (schizonts): -0.532
- Log2 fold change in glutamate level (schizonts): 0.117
- Log2 fold change in glutamine level (schizonts): -0.138
- Log2 fold change in glutathione disulfide level (schizonts): -0.224
- Log2 fold change in glutathione level (schizonts): -0.005
- Log2 fold change in guanosine level (schizonts): 0.426
- Log2 fold change in histidine level (schizonts): -0.171
- Log2 fold change in hydroxyproline/Aminolevulinate level (schizonts): -0.254
- Log2 fold change in hypoxanthine level (schizonts): -0.139
- Log2 fold change in inosine level (schizonts): -0.136
- Log2 fold change in isoleucine level (schizonts): -0.252
- Log2 fold change in lysine level (schizonts): 0.587
- Log2 fold change in malate level (schizonts): -0.393
- Log2 fold change in maleic acid level (schizonts): -0.266
- Log2 fold change in methionine level (schizonts): -0.241
- Log2 fold change in nicotinate level (schizonts): -0.183
- Log2 fold change in orotate level (schizonts): -1.303
- Log2 fold change in pantothenate level (schizonts): -0.167
- Log2 fold change in phenylalanine level (schizonts): -0.316
- Log2 fold change in phosphoenolpyruvate level (schizonts): -0.095
- Log2 fold change in proline level (schizonts): -0.320
- Log2 fold change in pyruvate level (schizonts): -1.011
- Log2 fold change in ribose level (schizonts): -0.223
- Log2 fold change in ribose-phosphate level (schizonts): -0.313
- Log2 fold change in ribulose-5-phosphate level (schizonts): -0.261
- Log2 fold change in serine level (schizonts): 0.028
- Log2 fold change in sn-glycerol-3-phosphate level (schizonts): -0.021
- Log2 fold change in succinate/Methylmalonic acid level (schizonts): -0.382
- Log2 fold change in thiamine level (schizonts): -0.051
- Log2 fold change in threonine/homoserine level (schizonts): -0.072
- Log2 fold change in tryptophan level (schizonts): -0.203
- Log2 fold change in tyrosine level (schizonts): -0.165
- Log2 fold change in xanthosine level (schizonts): -0.209
- Log2 fold change in xanthosine-5-phosphate level (schizonts): -0.537
- Log2 fold change in 2-Hydroxy-2-methylbutanedioic acid level (trophozoites): -0.127
- Log2 fold change in 2_3-Diphosphoglyceric acid level (trophozoites): -0.381
- Log2 fold change in 3-phosphoglycerate level (trophozoites): -0.429
- Log2 fold change in 4-aminobutyrate level (trophozoites): 0.101
- Log2 fold change in 4-phosphopantothenate level (trophozoites): -0.459
- Log2 fold change in 6-phospho-D-gluconate level (trophozoites): -0.286
- Log2 fold change in ADP-D-glucose level (trophozoites): -0.046
- Log2 fold change in CDP level (trophozoites): -0.509
- Log2 fold change in CMP level (trophozoites): -0.007
- Log2 fold change in D-glucosamine-1/6-phosphate level (trophozoites): -0.044
- Log2 fold change in D-sedoheptulose-1/7-phosphate level (trophozoites): -0.528
- Log2 fold change in DL-Pipecolic Acid level (trophozoites): -0.217
- Log2 fold change in DLH level (trophozoites): 0.019
- Log2 fold change in DLS level (trophozoites): -0.123
- Log2 fold change in FAD level (trophozoites): -0.090
- Log2 fold change in FMN level (trophozoites): -0.124
- Log2 fold change in GDP level (trophozoites): 0.014
- Log2 fold change in GMP level (trophozoites): 0.614
- Log2 fold change in HVDD level (trophozoites): 0.032
- Log2 fold change in Hexose level (trophozoites): -0.376
- Log2 fold change in IMP level (trophozoites): 0.044
- Log2 fold change in N-Acetyl-L-alanine level (trophozoites): -0.316
- Log2 fold change in N-acetyl-L-ornithine level (trophozoites): 0.096
- Log2 fold change in N-acetyl-glutamate level (trophozoites): -0.170
- Log2 fold change in N-acetyl-glutamine level (trophozoites): -0.082
- Log2 fold change in N-carbamoyl-L-aspartate level (trophozoites): 3.058
- Log2 fold change in NAD+ level (trophozoites): -0.186
- Log2 fold change in NADP+ level (trophozoites): -0.065
- Log2 fold change in NADPH level (trophozoites): -0.700
- Log2 fold change in Octulose 8/1P level (trophozoites): -0.033
- Log2 fold change in Octulose Bisphosphate level (trophozoites): -0.267
- Log2 fold change in PD level (trophozoites): 0.177
- Log2 fold change in PE level (trophozoites): 0.343
- Log2 fold change in PEE level (trophozoites): -0.149
- Log2 fold change in PEEK level (trophozoites): 0.046
- Log2 fold change in PVNF level (trophozoites): -0.949
- Log2 fold change in Pyroglutamic acid level (trophozoites): -0.555
- Log2 fold change in Ribose-5-phosphate level (trophozoites): -0.276
- Log2 fold change in S-adenosyl-L-homocysteine level (trophozoites): -0.313
- Log2 fold change in Sedoheptulose bisphosphate level (trophozoites): -0.304
- Log2 fold change in UDP level (trophozoites): -0.826
- Log2 fold change in UDP-D-glucose level (trophozoites): -0.168
- Log2 fold change in UDP-D-glucuronate level (trophozoites): -0.164
- Log2 fold change in UDP-N-acetyl-glucosamine level (trophozoites): -0.499
- Log2 fold change in UMP level (trophozoites): -0.377
- Log2 fold change in a-ketoglutarate level (trophozoites): -0.00422
- Log2 fold change in acetyl-CoA level (trophozoites): -0.783
- Log2 fold change in acetyl-aspartate level (trophozoites): -0.358
- Log2 fold change in alanine/sarcosine level (trophozoites): -0.389
- Log2 fold change in arginine level (trophozoites): -0.197
- Log2 fold change in asparagine level (trophozoites): -0.111
- Log2 fold change in aspartate level (trophozoites): -0.858
- Log2 fold change in coenzyme A level (trophozoites): -0.813
- Log2 fold change in cyclic-AMP level (trophozoites): -0.306
- Log2 fold change in cytidine level (trophozoites): -0.308
- Log2 fold change in dCDP level (trophozoites): 0.078
- Log2 fold change in dCMP level (trophozoites): 0.286
- Log2 fold change in dCTP level (trophozoites): -0.396
- Log2 fold change in dGDP/ADP level (trophozoites): -0.020
- Log2 fold change in dGMP/AMP level (trophozoites): 0.757
- Log2 fold change in dTDP level (trophozoites): -0.522
- Log2 fold change in dTMP level (trophozoites): 0.797
- Log2 fold change in dTTP level (trophozoites): -1.044
- Log2 fold change in dihydroorotate level (trophozoites): 4.182
- Log2 fold change in folate level (trophozoites): -0.409
- Log2 fold change in fructose-1-6-bisphosphate level (trophozoites): -0.330
- Log2 fold change in fructose-6-phosphate level (trophozoites): -0.341
- Log2 fold change in fumarate level (trophozoites): -0.377
- Log2 fold change in glutamate level (trophozoites): 0.025
- Log2 fold change in glutamine level (trophozoites): -0.211
- Log2 fold change in glutathione disulfide level (trophozoites): -0.238
- Log2 fold change in glutathione level (trophozoites): -0.129
- Log2 fold change in guanosine level (trophozoites): -0.368
- Log2 fold change in histidine level (trophozoites): -0.281
- Log2 fold change in hydroxyproline/Aminolevulinate level (trophozoites): -0.316
- Log2 fold change in hypoxanthine level (trophozoites): -0.322
- Log2 fold change in inosine level (trophozoites): -0.490
- Log2 fold change in isoleucine level (trophozoites): -0.515
- Log2 fold change in lysine level (trophozoites): 0.274
- Log2 fold change in malate level (trophozoites): -0.381
- Log2 fold change in maleic acid level (trophozoites): -0.226
- Log2 fold change in methionine level (trophozoites): -0.384
- Log2 fold change in nicotinate level (trophozoites): -0.467
- Log2 fold change in orotate level (trophozoites): 0.364
- Log2 fold change in pantothenate level (trophozoites): -0.383
- Log2 fold change in phenylalanine level (trophozoites): -0.490
- Log2 fold change in phosphoenolpyruvate level (trophozoites): -0.226
- Log2 fold change in proline level (trophozoites): -0.424
- Log2 fold change in pyruvate level (trophozoites): -0.797
- Log2 fold change in ribose level (trophozoites): -0.358
- Log2 fold change in ribose-phosphate level (trophozoites): -0.355
- Log2 fold change in ribulose-5-phosphate level (trophozoites): -0.161
- Log2 fold change in serine level (trophozoites): -0.067
- Log2 fold change in sn-glycerol-3-phosphate level (trophozoites): 0.064
- Log2 fold change in succinate/Methylmalonic acid level (trophozoites): -0.878
- Log2 fold change in thiamine level (trophozoites): -0.352
- Log2 fold change in threonine/homoserine level (trophozoites): -0.156
- Log2 fold change in tryptophan level (trophozoites): -0.225
- Log2 fold change in tyrosine level (trophozoites): -0.394
- Log2 fold change in xanthosine level (trophozoites): -0.306
- Log2 fold change in xanthosine-5-phosphate level (trophozoites): -0.737
